Results on ten molecules are retold here after US8026370B2, “Carboxylic acid derivative containing thiazole ring and pharmaceutical use thereof” (Mitsubishi Tanabe Pharma Corporation, priority 2004, dated 2011).

Read-outs that look alike come from different tables or passages of the source.

Experiment [1] deals with T1, Human Peroxisome Proliferator-Activated Receptor (PPAR)α (Homo sapiens, UniProt Q07869).
T1 construct: expressed in transfected cells; host or cells: CV-1 cells (CCL-70)
T1 sequence (Q07869 239-466 limits assumed): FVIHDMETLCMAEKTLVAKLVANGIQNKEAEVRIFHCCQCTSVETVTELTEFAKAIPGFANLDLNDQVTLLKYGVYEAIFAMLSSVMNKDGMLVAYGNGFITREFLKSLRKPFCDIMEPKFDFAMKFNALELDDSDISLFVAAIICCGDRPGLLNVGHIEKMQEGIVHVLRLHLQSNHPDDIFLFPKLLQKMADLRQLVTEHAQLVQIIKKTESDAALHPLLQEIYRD
The experiment is described as follows: Transcription activation test for human PPARα (GAL4-hPPARαLBD luciferase reporter in CV-1 cells). The format is cell-based. Particulars: firefly luciferase reporter, 24 hr with test compound in serum free medium, read-out: transactivation action (EC50, nmol/l). The text has this:
Transcription Activation Test for Human Peroxisome Proliferator-Activated Receptor (PPAR)α
CV-1 cells (CCL-70, manufactured by Dainippon Pharma Co., Ltd.) cultured in Dulbecco's Modified Eagle Medium (DMEM) containing 10% fetal bovine serum (FBS) were transfected, using Lipofectamine 2000 (manufactured by Invitrogen), with pBIND vector (manufactured by Promega) a fusion that expresses protein (GAL4-hPPARαLBD, manufactured based on Diabetes 47: 1841-1847, 1998) of a DNA binding region of a yeast transcription factor (GAL4) and a human PPARα ligand binding region, and an internal standard renilla luciferase, and GAL4 responsive TK vector (manufactured by Promega) that expresses reporter firefly luciferase. 24 hr later, the medium was changed to a serum free medium containing a test compound, and the luciferase activity after 24 hr was measured.
On the technique in general: Reporter assays use an easily measured gene product as a stand-in for the process of interest.

For the next experiment, the system named is normal rats. As to the kind of experiment: Blood triglyceride (TG)-lowering action in normal rats. To be noted: 0.3 mg/kg p.o. once a day for 4 days, normal male SD rats, non-fasting, blood TG vs vehicle group; for inhibition in vivo at 0.3 mg/kg: Rattus norvegicus, po, 96 h, read-out: hypotriglyceridemic rate (%, 0.3 mg/kg, p.o.). The format is in vivo. Here is the method: 1) Blood Triglyceride (TG)-Lowering Action in Normal Rats
7 to 9-week-old male SD rats (manufactured by SEAC Yoshitomi, Ltd.) were used for the test. A test compound and a control compound (GW-9578: J. Med. Chem. 1999, 42, 3785-3788) were dissolved or suspended in 1% ethanol, 0.05% Tween80 (final concentration), and 0.5% hydroxypropylmethyl cellulose (HPMC) was added to adjust to a given concentration. The prepared solution was orally administered once a day for 4 days. After administration for 4 days, blood samples were collected from the jugular vein under non-fasting condition and blood TG was measured by an enzyme method. The lowering rate was calculated by determining the rate of a value obtained by subtracting the average blood TG of a drug administration group from the average blood TG of a vehicle administration group, to the average blood TG of the vehicle administration group.

For experiment [2], the system named is high cholesterol diet-treated rat. As to the kind of experiment: Influence on serum lipid of high cholesterol diet-treated rat. The format is in vivo, male SD rats. Particulars: 0.3 mg/kg p.o. once a day for 5 days, high cholesterol diet rats, non-fasting; for inhibition in vivo at 0.3 mg/kg: Rattus norvegicus, po, 120 h. Here is the method:
2) Influence on Serum Lipid of High Cholesterol Diet-Treated Rat
8-week-old male SD rats (manufactured by SEAC Yoshitomi, Ltd.) were raised on a standard diet CE-2 (manufactured by Japan Clea, Inc.) added with 1% cholesterol, 2% olive oil and 0.2% cholic acid, from one week before test compound administration to the last day of the administration. A test compound and a control compound (GW-9578) were dissolved or suspended in 1% ethanol, 0.05% Tween80 (final concentration), and 0.5% hydroxypropylmethyl cellulose (HPMC) was added to adjust to a given concentration. The prepared solution was orally administered once a day for 5 days. After administration for 5 days, blood samples were collected from the jugular vein under non-fasting condition and blood lipid was measured by an enzyme method. The lowering rate was calculated by determining the rate of a value obtained by subtracting the average blood TG (or average blood TC) of a drug administration group from the average blood triglyceride (TG) (or average blood total cholesterol (TC)) of a vehicle administration group, to the average blood TG (or average blood TC) of the vehicle administration group.

Setting [3] is: blood total cholesterol vs vehicle group, read-out: lowering rate (%, 0.3 mg/kg, p.o.) TC.
Where [4] appears, read: blood triglyceride vs vehicle group, read-out: lowering rate (%, 0.3 mg/kg, p.o.) TG.

Regarding `CCCCCCCN(CCc1csc(SC(C)(C)C(=O)O)n1)c1ncc(N2CCOCC2)cn1` [Example 442, 2-[(4-{2-[heptyl(5-morpholin-4-ylpyrimidin-2-yl)amino]ethyl}-1,3-thiazol-2-yl)thio]-2-methylpropionic acid], the EC50 in experiment [1] turned out to be 5.5 nmol/L. The figures for the inhibition in vivo at 0.3 mg/kg (in the experiment with normal rats; in experiment [2] (setting [3]); in experiment [2] (setting [4])) were 65%, 38% and 39%, respectively.
Consider `CCCCCCCN(CCc1ccc(SC(C)(C)C(=O)O)cc1)C(=O)Nc1ccc(F)cc1F` [GW-9578, reference compound], for which the “hypotriglyceridemic rate (%, 0.3 mg/kg, p.o.)” value with normal rats is given as 50-60%. For the same molecule, in experiment [2] (blood total cholesterol vs vehicle group), the “lowering rate (%, 0.3 mg/kg, p.o.) TC” value is listed as 30-50%. The “lowering rate (%, 0.3 mg/kg, p.o.) TG” value in experiment [2] (blood triglyceride vs vehicle group) is recorded as 30-50%.
As to `CC(C)(Sc1nc(CCNc2ccc(-c3ccc(C(F)(F)F)cc3F)nn2)cs1)C(=O)O` [Example 224, 2-({4-[2-({6-[2-fluoro-4-(trifluoromethyl)phenyl]pyridazin-3-yl}amino)ethyl]-1,3-thiazol-2-yl}thio)-2-methylpropionic acid], the EC50 in experiment [1] amounted to 29.7 nmol/L. Besides, the inhibition in vivo at 0.3 mg/kg is 63% in the experiment on normal rats, 31% in experiment [2] (setting [3]) and 57% in experiment [2] (setting [4]).
In the same order, the values of `CC(C)(Sc1nc(CCOc2ccc(-c3ccc(F)cc3)cc2)cs1)C(=O)O` [Example 34, 2-[(4-{2-[(4′-fluorobiphenyl-4-yl)oxy]ethyl}-1,3-thiazol-2-yl)thio]-2-methylpropionic acid] are 10.4 nmol/L, 62%, 43% and 45%.
In the same order, the values of `CCCCCCCN(CCc1csc(SC(C)(C)C(=O)O)n1)c1ncc(CC)cn1` [Example 265, 2-[(4-{2-[(5-ethylpyrimidin-2-yl)(heptyl)amino]ethyl}-1,3-thiazol-2-yl)thio]-2-methylpropionic acid] are 7 nmol/L, 69%, 31% and 63%.
In the same order, the values of `CC(C)(Sc1nc(CCNc2cnc(-c3ccc(Cl)cc3)cn2)cs1)C(=O)O` [Example 226, 2-{[4-(2-{[5-(4-chlorophenyl)pyrazin-2-yl]amino}ethyl)-1,3-thiazol-2-yl]thio}-2-methylpropionic acid] are 16.5 nmol/L, 64%, 38% and 56%.
Take `CCc1cnc(N(CCc2csc(SC(C)(C)C(=O)O)n2)Cc2cnn(-c3ccccc3)c2)nc1` [Example 326, 2-{[4-(2-{(5-ethylpyrimidin-2-yl)[(1-phenyl-1H-pyrazol-4-yl)methyl]amino}ethyl)-1,3-thiazol-2-yl]thio}-2-methylpropionic acid]: the EC50 in experiment [1] was 38.8 nmol/L. In addition, the inhibition in vivo at 0.3 mg/kg in the experiment on normal rats came out at 59%; in experiment [2] (setting [3]) it was 31%; in experiment [2] (setting [4]), 43%.
For the molecule `CC(C)(Sc1nc(CCNc2ncc(-c3ccc(OC(F)(F)F)cc3)cn2)cs1)C(=O)O` [Example 162, 2-methyl-2-({4-[2-({5-[4-(trifluoromethoxy)phenyl]pyrimidin-2-yl}amino)ethyl]-1,3-thiazol-2-yl}thio)propionic acid], the EC50 in experiment [1] is 21 nmol/L. The inhibition in vivo at 0.3 mg/kg with normal rats is 65%; in experiment [2] (setting [3]), 31%; in experiment [2] (setting [4]), 48%.
With `CC(C)(Sc1nc(CCOc2ccc(-c3ccc(F)cc3)cn2)cs1)C(=O)O` [Example 100], in experiment [1], the EC50 is 11.2 nmol/L. Further, the inhibition in vivo at 0.3 mg/kg in the experiment on normal rats came to 61%; in experiment [2] (setting [3]) it was 35%; in experiment [2] (setting [4]), 38%.
As for `CCc1cnc(N(C/C=C/c2ccccc2)CCc2csc(SC(C)(C)C(=O)O)n2)nc1` [Example 346, 2-{[4-(2-{(5-ethylpyrimidin-2-yl)[(2E)-3-phenylprop-2-en-1-yl]amino}ethyl)-1,3-thiazol-2-yl]thio}-2-methylpropionic acid], the EC50 in experiment [1] worked out at 13.6 nmol/L. In addition, the inhibition in vivo at 0.3 mg/kg with normal rats was found to be 63%; in experiment [2] (setting [3]) it was 31%; in experiment [2] (setting [4]), 47%.
